Biological target: T1, P2X7 receptor (Homo sapiens, UniProt Q99572)
T1 construct: host or cells: SH-SY5Y
T1 sequence (Q99572 1-595): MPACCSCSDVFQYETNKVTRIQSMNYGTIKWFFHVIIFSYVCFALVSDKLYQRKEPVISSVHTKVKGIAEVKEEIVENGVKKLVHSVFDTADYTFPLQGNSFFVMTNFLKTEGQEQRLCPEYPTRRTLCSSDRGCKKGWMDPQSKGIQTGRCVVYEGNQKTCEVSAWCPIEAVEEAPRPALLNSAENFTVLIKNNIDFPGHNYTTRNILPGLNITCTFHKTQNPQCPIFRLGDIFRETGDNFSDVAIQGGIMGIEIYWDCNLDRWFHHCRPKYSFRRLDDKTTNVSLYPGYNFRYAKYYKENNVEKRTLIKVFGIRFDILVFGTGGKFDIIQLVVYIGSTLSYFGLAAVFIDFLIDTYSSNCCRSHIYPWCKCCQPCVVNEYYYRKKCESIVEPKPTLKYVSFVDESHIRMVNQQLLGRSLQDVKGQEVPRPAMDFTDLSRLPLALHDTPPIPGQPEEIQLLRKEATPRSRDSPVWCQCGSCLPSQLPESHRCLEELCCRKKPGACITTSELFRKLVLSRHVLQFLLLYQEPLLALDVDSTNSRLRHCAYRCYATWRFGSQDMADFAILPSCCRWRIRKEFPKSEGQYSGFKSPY
Test: P2X7 calcium mobilization assay, high throughput, antagonist activity (Example 4A)
Type: cell-based
Conditions: 50% decrease in the fluorescence response of cells exposed to 80 μM 2′(3′)-O-(4-benzoyl-benzoyl)adenosine 5′-triphosphate; Example 4A; read-out: IC50
How it was run: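 Antagonism was measured as calcium mobilization on FLIPR^TETRA after a 1 h room-temperature compound preincubation of dye-loaded cells. Baseline from no-agonist wells was subtracted from each well's maximum RFU.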

IC50 [nM] | Compound
< 2000 | CCNCc1cn2c(C(=O)NCC34CC5CC(CC(C5)C3)C4)cccc2n1 [Compound 534, N-(adamantan-1-ylmethyl)-2-[(ethylamino)methyl] imidazo[1,2-a]pyridine-5-carboxamide]
< 2000 | CC(CO)c1cn2c(C(=O)NCC34CC5CC(CC(C5)C3)C4)cccc2n1 (stereo not shown) [Compound 535, N-(adamantan-1-ylmethyl)-2-(2-hydroxy-1-methylethyl)imidazo[1,2-a]pyridine-5-carboxamide]
< 2000 | O=C(NCC12CC3CC(CC(C3)C1)C2)c1cccc2nc(CN3C[C@H](O)CC3=O)cn12 [Compound 538, N-(adamantan-1-ylmethyl)-2-{[(4R)-4-hydroxy-2-oxopyrrolidin-1-yl]methyl}imidazo[1,2-a]pyridine-5-carboxamide]
< 2000 | CC(C)(CO)c1cn2c(C(=O)NCC34CC5CC(CC(C5)C3)C4)cccc2n1 [Compound 539, N-(adamantan-1-ylmethyl)-2-(2-hydroxy-1,1-dimethylethyl)imidazo [1,2-a]pyridine-5-carboxamide]
< 2000 | CCOC(=O)C(=O)N(CC)Cc1cn2c(C(=O)NCC34CC5CC(CC(C5)C3)C4)cccc2n1 [Compound 541, ethyl [({5-[(adamantan-1-ylmethyl)carbamoyl]imidazo[1,2-a]pyridin-2-yl}methyl)(ethyl)amino] (oxo)acetate]
< 2000 | O=C(NCC12CC3CC(CC(C3)C1)C2)c1cccc2nc(CSc3ncc[nH]3)cn12 [Compound 542, N-(adamantan-1-ylmethyl)-2-[(1H-imidazol-2-ylthio)methyl] imidazo [1,2-a]pyridine-5-carboxamide]
< 2000 | CCN(Cc1cn2c(C(=O)NCC34CC5CC(CC(C5)C3)C4)cccc2n1)C(=O)C(=O)O [Compound 546, [({5-[(adamantan-1-ylmethyl)carbamoyl]imidazo[1,2-a]pyridin-2-yl}methyl)(ethyl)amino] (oxo)acetic acid]
< 2000 | CC(C(=O)O)c1cn2c(C(=O)NCC34CC5CC(CC(C5)C3)C4)cccc2n1 (stereo not shown) [Compound 547, 2-{5-[(adamantan-1-ylmethyl)carbamoyl]imidazo[1,2-a]pyridin-2-yl} propanoic acid]
< 2000 | CCN(Cc1cn2c(C(=O)NCC34CC5CC(CC(C5)C3)C4)cccc2n1)C(=O)c1ncc[nH]1 [Compound 551, N-(adamantan-1-ylmethyl)-2-{[ethyl(1H-imidazol-2-ylcarbonyl)amino]methyl}imidazo[1,2-a]pyridine-5-carboxamide]
< 2000 | CCN(Cc1cn2c(C(=O)NCC34CC5CC(CC(C5)C3)C4)cccc2n1)C(=O)c1nnc[nH]1 [Compound 552, N-(adamantan-1-ylmethyl)-2-{[ethyl(4H-1,2,4-triazol-3-ylcarbonyl)amino]methyl}imidazo[1,2-a]pyridine-5-carboxamide]
< 2000 | CCN(CCO)Cc1cn2c(C(=O)NCC34CC5CC(CC(C5)C3)C4)cccc2n1 [Compound 553, N-(adamantan-1-ylmethyl)-2-{[ethyl(2-hydroxyethyl)amino]methyl}imidazo[1,2-a]pyridine-5-carboxamide]

Continued, molecule first:

Compound | IC50 [nM]
O=C(NCC12CC3CC(CC(C3)C1)C2)c1cccc2nc(CC(=O)N3CC[C@@H](O)C3)cn12 [Compound 531, N-(adamantan-1-ylmethyl)-2-{2-[(3R)-3-hydroxypyrrolidin-1-yl]-2-oxoethyl}imidazo[1,2-a]pyridine-5-carboxamide] | < 2000
Cn1nnnc1SCc1cn2c(C(=O)NCC34CC5CC(CC(C5)C3)C4)cccc2n1 [Compound 532, N-(adamantan-1-ylmethyl)-2-{[(1-methyl-1H-tetrazol-5-yl)thio]methyl}imidazo [1,2-a]pyridine-5-carboxamide] | < 2000
CCOC(=O)Cc1cn2c(C(=O)NCC(CC(C)C)c3cccnc3)cccc2n1 (stereo not shown) [Compound 533, ethyl {5-[(4-methyl-2-pyridin-3-ylpentyl)carbamoyl]imidazo[1,2-a]pyridin-2-yl}acetate] | < 2000
O=C(NCC12CC3CC(CC(C3)C1)C2)c1cccc2nc(CC(=O)N3CCSCC3)cn12 [Compound 536, N-(adamantan-1-ylmethyl)-2-(2-oxo-2-thiomorpholin-4-ylethyl)imidazo[1,2-a]pyridine-5-carboxamide] | < 2000
O=C(NCC12CC3CC(CC(C3)C1)C2)c1cccc2nc(CN3CCS(=O)(=O)CC3)cn12 [Compound 537, N-(adamantan-1-ylmethyl)-2-[(1,1-dioxidothiomorpholin-4-yl)methyl]imidazo[1,2-a]pyridine-5-carboxamide] | < 2000
O=C(CC12CC3CC(CC(C3)C1)C2)Nc1cccc2nc(CSc3nnc[nH]3)cn12 [Compound 540, 2-adamantan-1-yl-N-{2-[(4H-1,2,4-triazol-3-ylthio)methyl]imidazo [1,2-a]pyridin-5-yl}acetamide] | < 2000
O=C(O)CCNC(=O)c1cn2c(C(=O)NCC34CC5CC(CC(C5)C3)C4)cccc2n1 [Compound 544, N-({5-[(adamantan-1-ylmethyl)carbamoyl)imidazo[1,2-a]pyridin-2-yl}carbonyl)-beta-alanine] | < 2000
CC(C)CC(CNC(=O)c1cccc2nc(CCO)cn12)c1cccnc1 (stereo not shown) [Compound 545, 2-(2-hydroxyethyl)-N-(4-methyl-2-pyridin-3-ylpentyl)imidazo[1,2-a]pyridine-5-carboxamide] | < 2000
O=C(NCC12CC3CC(CC(C3)C1)C2)c1cccc2nc(C[S+]([O-])c3nnc[nH]3)cn12 (stereo not shown) [Compound 554, N-(adamantan-1-ylmethyl)-2-[(4H-1,2,4-triazol-3-ylsulfinyl)methyl]imidazo [1,2-a]pyridine-5-carboxamide] | < 2000
CC1(C)[C@@H]2CC[C@@H](CNC(=O)c3cccc4nc(CC(=O)N5CCNCC5)cn34)[C@H]1C2 [Compound 555, N-{[(1R,2R,5R)-6,6-dimethylbicyclo[3.1.1]hept-2-yl]methyl}-2-(2-oxo-2-piperazin-1-ylethyl)imidazo[1,2-a]pyridine-5-carboxamide] | < 2000
CC1CNCCN1C(=O)Cc1cn2c(C(=O)NC[C@@H]3CC[C@@H]4C[C@H]3C4(C)C)cccc2n1 (stereo partly drawn) [Compound 556, N-{[(1R,2R,5R)-6,6-dimethylbicyclo[3.1.1]hept-2-yl]methyl}-2-[2-(2-methylpiperazin-1-yl)-2-oxoethyl]imidazo[1,2-a]pyridine-5-carboxamide] | < 2000
C[C@H]1CNCCN1C(=O)Cc1cn2c(C(=O)NC[C@@H]3CC[C@@H]4C[C@H]3C4(C)C)cccc2n1 [Compound 557, N-{[(1R,2R,5R)-6,6-dimethylbicyclo[3.1.1]hept-2-yl]methyl}-2-{2-[(2S)-2-methylpiperazin-1-yl]-2-oxoethyl}imidazo [1,2-a]pyridine-5-carboxamide] | < 2000
CC1(C)[C@@H]2CC[C@@H](CNC(=O)c3cccc4nc(CC(=O)N5C[C@@H]6C[C@H]5CN6)cn34)[C@H]1C2 [Compound 559, 2-{2-[(1S,4S)-2,5-diazabicyclo[2.2.1]hept-2-yl]-2-oxoethyl}-N-{[(1R,2R,5R)-6,6-dimethylbicyclo[3.1.1]hept-2-yl]methyl}imidazo[1,2-a]pyridine-5-carboxamide] | < 2000
CC1(C)[C@@H]2CC[C@@H](CNC(=O)c3cccc4nc(CC(=O)N5CCCNCC5)cn34)[C@H]1C2 [Compound 560, 2-[2-(1,4-diazepan-1-yl)-2-oxoethyl]-N-{[(1R,2R,5R)-6,6-dimethylbicyclo[3.1.1]hept-2-yl]methyl}imidazo[1,2-a]pyridine-5-carboxamide] | < 2000
